Reference: paper PMC9743426, “Expanding the Chemical Space of Drug-like Passerini Compounds: Can α-Acyloxy Carboxamides Be Considered Hard Drugs?” (ACS Medicinal Chemistry Letters, 2022)

Assays:
[1] = Hydrolytic stability in human plasma; assay type: in vitro ADME; conditions: substrate 10 μM, 30 min, 37 °C
Procedure: As a final point, for some of the compounds characterized by the best hepatic stability, we also evaluated them in human plasma (Table 2) and under acidic and alkaline conditions (see the Supporting Information), the latter to ascertain the stability of α-acyloxy carboxamides in the gastrointestinal tract. […] Once again, the ortho,ortho′-disubstitution of the aromatic ring is the one that gives the best metabolic stability. […]
Hydrolytic stability in human plasma
The standard incubation mixture (100 μL final volume) was carried out by dissolving the tested substrate compounds (10 μM) in DMSO (5% final volume) in preincubated plasma at 37 °C. The mixture was shaken for 30 min at 37 °C. Control incubations were carried out without substrate. Each incubation was stopped by addition of 200 μL of ice-cold acetonitrile, vortexed, and centrifuged at 13000 rpm for 10 min. The supernatants were analyzed by LC-HRMS. […]

[2] = Hydrolytic (chemical) stability in Tris-HCl buffer pH 7.4; assay type: physicochemical; conditions: 50 mM Tris-HCl buffer pH 7.4, incubation 30 min, without microsomes
Procedure: (§1) For all 43 compounds, a first evaluation of their chemical and metabolic stabilities toward hydrolysis was performed by incubating them in buffer under physiological conditions (50 mM Tris-HCl, pH 7.4) and in mouse liver microsomes (Table 1). This model was chosen because, similar to the human liver, both of the carboxylesterase isoforms are present. […] A more interesting trend was instead possible to observe with benzoic acids.
(§2) Hydrolytic stability in MLM and HLM
(§3) The standard incubation mixture (200 µL final volume) was carried out in a 50 mM TRIS-HCl buffer (pH 7.4) containing 150 mM KCl, tween 80 as cosolvent (0.8 mg/mg protein), and the substrate (10 μM). After pre-equilibration of the mixture, an appropriate volume of MLM or HLM suspension was added to give a final protein concentration of 1.0 mg/mL. The mixture was shaken for 30 minutes at 37 °C. Control incubations were carried out without the presence or microsomes or in pure acetonitrile. Each incubation was stopped by the addition of 200 µL ice-cold acetonitrile, vortexed and centrifuged at 13000 rpm for 5 min. The supernatants were analyzed by LC-HRMS. […]

[3] = Hydrolytic stability in mouse liver microsomes (MLM); assay type: in vitro ADME; conditions: 30 min; for Residual substrate percentage, MLM: mouse liver microsomes 1.0 mg/mL protein, substrate 10 μM, 37 °C
Procedure: as §1, §2, §3

[4] = Hydrolytic stability in human liver microsomes (HLM); assay type: in vitro ADME; conditions: 30 min; for Residual substrate percentage, HLM: human liver microsomes 1.0 mg/mL protein, substrate 10 μM, 37 °C
Procedure: This was made in light of the fact that the overall metabolizing capability of murine hepatic enzymes, including carboxylesterases, is supposed to be higher compared to the human ones.[17]
as §2, §3

P. aeruginosa ATCC 9027 = experiment: Antibacterial activity, agar well-diffusion method; assay type: cell-based, Pseudomonas aeruginosa; conditions: for Antibacterial activity (in words): P. aeruginosa ATCC 9027, 1 mg/mL; for Inhibition zone: P. aeruginosa ATCC 9027, 1 mg/mL in DMSO, 55 μL per 6 mm well, 24 h at 37 °C, average ± SD
Text: Recently an article presented the synthesis of 1,3-phenylenebis(2-(cyclohexylamino)-2-oxoethane-1,1-diyl) dibenzoate (99) (Figure 6), obtained with a double Passerini reaction starting from 1,3-benzenedicarbaldehyde. […] According to our studies, compounds 99 is expected to suffer from metabolic instability, whereas the new analogue 100 designed by us (Figure 6), containing methyl groups at the two ortho positions in each benzoate group, should be metabolically stable. We then synthesized the two compounds and evaluated their antibacterial activities on P. aeruginosa and their hydrolytic stabilities. The in vitro antibacterial activities of 99 and 100 were evaluated against the P. aeruginosa ATCC 9027 strain. […] No inhibition halos were observed around the wells containing DMSO alone.
The in vitro antibacterial activity of the compounds was assayed against the Gram-negative P. aeruginosa
ATCC 9027 by the agar well-diffusion method. Compounds 99, 100, and gentamycin were dissolved in
DMSO (Scharlab, Barcelona, ES) and tested at the concentration of 1 mg/mL. For comparison, gentamycin
was used as a negative control of growth and DMSO as positive control of growth. The strain, obtained from
the American Type Culture Collection (ATCC, Manassas, VA, United States) and stored at −80 °C in Brain
Heart Infusion (Scharlab, Barcelona, ES) with 25% glycerol (Scharlab, Barcelona, ES), was cultured onto
Tryptic Soy Agar (Scharlab, Barcelona, ES) at 37°C for 16 h.
A bacterial suspension (ca. 1.5×10^8 Colony Forming Unit per ml) was prepared in isotonic saline solution
(NaCl 0,9%) and spread onto Muller-Hinton agar (Scharlab, Barcelona, ES) surfaces using a sterile swab.
Wells (6 mm diameter) were punched using a sterile punch cutter and filled with 55 μL of each sample. Plates
were left at room temperature for 1h to allow each sample to diffuse into the agar and then incubated at 37 °C
for 24 h. Finally, the inhibition zone diameters were measured.
The assay was carried out in triplicate and repeated twice. Results were expressed as average values ± standard

Pseudomonas aeruginosa = tested on: Pseudomonas aeruginosa; parameters: method as in doi:10.1155/2013/125959; conditions: mixture of two enantiomers and a meso form; cited from earlier work

Compound	Residual substrate percentage, plasma [1]	Residual substrate percentage, buffer [2]	Residual substrate percentage, MLM [3]	Hydrolysis of the ester group in mouse liver microsomes (in words) [3]	Residual substrate percentage, HLM [4]	Hydrolytic stability in human liver microsomes (in words) [4]	Antibacterial activity (in words) (P. aeruginosa ATCC 9027)	Inhibition zone (P. aeruginosa ATCC 9027)	Antibacterial activity against Pseudomonas aeruginosa (in words) (Pseudomonas aeruginosa)
Cc1cccc(C)c1C(OC(=O)c1ccccc1)C(=O)NC(C)(C)C (centres unmarked) [Compound 57]	90%	>99%	3%	rapidly degraded	73%	stable			
CC(C)(C)NC(=O)C(OC(=O)c1ccccc1)c1ccccc1-c1ccccc1 (centres unmarked) [Compound 58]	90%	>99%	2%	rapidly degraded	>99%	stable			
CC(C)C(OC(=O)/C=C/c1ccccc1)C(=O)NC(C)(C)C (centres unmarked) [Compound 65]		>99%	<1%	completely unstable	3%	instability			
CC(C)C(OC(=O)C(C)(C)C)C(=O)NC(C)(C)C (centres unmarked) [Compound 73]		>99%	30%	easily hydrolyzed	52%	moderately more stable			
Cc1cccc(C)c1C(=O)OC(C(=O)NC(C)(C)C)c1ccccc1 (centres unmarked) [Compound 78, 2-(tert-butylamino)-2-oxo-1-phenylethyl 2,6-dimethylbenzoate]	>99%	>99%	>99%		>99%	excellent stability			
Cc1cccc(Cl)c1C(=O)OCC(=O)NC(C)(C)C [Compound 80]	>99%	98%	97%		>99%	excellent stability			
CC(C)(C)NC(=O)COC(=O)C(C)(C)Oc1ccc(Cl)cc1 [Compound 84]		>99%	<1%	completely unstable	2%	instability			
Cc1c(Br)cccc1C(=O)OCC(=O)NC(C)(C)C [Compound 89]		>99%	1%	the hydrolysis of the ester was complete	<1%	easy hydrolysis			
CC(C)(C)NC(=O)COC(=O)C12CC3CC(CC(C3)C1)C2 [Compound 97]		>99%	1%	rapidly metabolized	2%	instability			
Cc1ccc(Br)c(C)c1C(=O)OCC(=O)NC(C)(C)C [Compound 98]	>99%	>99%	>99%	extremely stable	>99%	excellent stability			
O=C(OC(C(=O)NC1CCCCC1)c1cccc(C(OC(=O)c2ccccc2)C(=O)NC2CCCCC2)c1)c1ccccc1 (centres unmarked) [Compound 99, 1,3-phenylenebis(2-(cyclohexylamino)-2-oxoethane-1,1-diyl) dibenzoate, reference compound]	93%	>99%	5%	high instability	47%	hydrolytic stability increased	moderate antibacterial activities	10.2 ± 1.2 mm	good antibacterial activity
Cc1cccc(C)c1C(=O)OC(C(=O)NC1CCCCC1)c1cccc(C(OC(=O)c2c(C)cccc2C)C(=O)NC2CCCCC2)c1 (centres unmarked) [Compound 100]	84%	>99%	95%	completely stable	>99%	completely stable	moderate antibacterial activities	10.4 ± 1.3 mm	
gentamycin								22.3 ± 1.7 mm	
